From the NIST ThermoML archive (doi:10.1016/j.jct.2013.03.026)
± gives the expanded uncertainty stated by the source.

Columns and labels:
[1] = DTA
[2] = Molar enthalpy of transition or fusion; details: DSC
[3] = molar heat capacity at constant pressure; details: 298.15 K, 101.33 kPa, Drop calorimetry

| Compound | Triple point temperature ([1]; Crystal) [K] | Molar enthalpy of transition or fusion ([2]; Crystal) [kcal/mol] | molar heat capacity at constant pressure ([3]; Crystal) [J/K/mol] | also measured |
| --- | --- | --- | --- | --- |
| c1ccc(-c2cccc(-c3cccc(-c4ccccc4)c3)c2)cc1 [metaquaterphenyl] | 360 ± 0.4 | 6.62 ± 0.191 | 359.5 ± 8.4 |  |
| c1ccc(-c2ccccc2-c2ccccc2-c2ccccc2-c2ccccc2)cc1 [o-quinquephenyl] | 428.8 ± 0.5 | 7.74 ± 0.191 | 444.3 ± 10 |  |
| c1ccc(-c2cccc(-c3cccc(-c4cccc(-c5ccccc5)c4)c3)c2)cc1 [1,1':3',1'':3'',1'':3'',1''''-quinquephenyl] | 387.1 ± 0.4 | 7.46 ± 0.191 | 443.7 ± 10 |  |
| c1ccc(-c2ccccc2-c2ccccc2-c2ccccc2)cc1 [o-quaterphenyl] | 390.6 ± 0.5 | 6.5 ± 0.167 | 359.1 ± 8.3 |  |
| c1ccc(-c2ccc(-c3ccc(-c4ccc(-c5ccccc5)cc4)cc3)cc2)cc1 [1,1':4',1'':4'',1''':4''',1''''-quinquephenyl] |  |  |  | Triple point temperature ([1]; Crystal 1): 663.4 ± 3.9 K; Triple point temperature ([1]; Crystal 2): 642.2 ± 3.9 K; Triple point temperature ([1]; Nematic liquid crystal): 696 ± 3.9 K; Molar enthalpy of transition or fusion ([2]; Crystal 1): 11.7 ± 0.956 kcal/mol; Molar enthalpy of transition or fusion ([2]; Crystal 2): 0.12 ± 0.0717 kcal/mol; Molar enthalpy of transition or fusion ([2]; Nematic liquid crystal): 0.382 ± 0.0956 kcal/mol; molar heat capacity at constant pressure ([3]; Crystal 2): 455.5 ± 11 J/K/mol |
| c1ccc(-c2ccccc2-c2ccccc2)cc1 [o-terphenyl] | 329.4 ± 0.4 | 4.06 ± 0.12 |  |  |
| c1ccc(-c2ccc(-c3ccccc3)cc2)cc1 [p-terphenyl] | 490.9 ± 0.6 | 7.86 ± 0.215 |  |  |
| c1ccc(-c2ccc(-c3ccc(-c4ccccc4)cc3)cc2)cc1 [1,1':4',1'':4'',1'''-quaterphenyl] | 594.4 ± 0.6 | 12.8 ± 0.359 |  |  |
| c1ccc(-c2cccc(-c3ccccc3)c2)cc1 [m-terphenyl] | 361.8 ± 0.7 | 6.09 ± 0.167 |  |  |
